# Molecular target: T1, recombinant, N-terminally GST-tagged ATAD2 bromodomain amino acids 981-1108 (Homo sapiens, UniProt Q6PL18)
# T1 construct: ATAD2 bromodomain amino acids 981-1108; made in house; host or cells: E. coli
# T1 sequence (Q6PL18 981-1108): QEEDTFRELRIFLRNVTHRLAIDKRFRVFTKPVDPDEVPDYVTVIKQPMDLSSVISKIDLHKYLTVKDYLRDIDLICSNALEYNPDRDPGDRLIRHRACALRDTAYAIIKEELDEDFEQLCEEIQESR
# Test: TR-FRET assay: disruption of the interaction between ATAD2 and acetylated Histone H4 (Ac-H4) peptide
# Format: binding
# Conditions: inhibition of ATAD2/Ac-H4 complex formation; 10 nM ATAD2, 50 nM Ac-H4 peptide
# Text: The ability of the compounds described in the present invention to disrupt the interaction between ATAD2 and acetylated Histone H4 (Ac-H4) was used as quantitative measure of their ATAD2-binding affinities.
# To this end a TR-FRET assay which detects the binding of an Ac-H4-derived synthetic peptide (purchased from e.g. Biosyntan (Berlin, Germany)) of sequence HSGRGKGGGGKGLGK(Ac)GGAKRHRK-Biotin to recombinant, N-terminally GST-tagged ATAD2 bromodomain amino acids 981-1108. The protein was produced in-house via E. coli expression followed by GSH-Sepharose affinity- and Superdex S200-size exclusion chromatography purification.
# Typically, 11 different concentrations of each compound (0.1 nM, 0.33 nM, 1.1 nM, 3.8 nM, 13 nM, 44 nM, 0.15 μM, 0.51 μM, 1.7 μM, 5.9 μM and 20 μM) were tested in duplicate within the same microtiter plate. To this end, 100-fold concentrated compound solutions (in DMSO) were previously prepared with a Precision Pippeting System (BioTek) by serial dilution (1:3.4) of 2 mM stocks in clear, low-volume 384-well microtiter source plates (Greiner Bio-One). Subsequently, 50 nl of compounds were transferred into black, low-volume test plates from the same supplier using a Hummingbird capillary based liquid handling instrument (Digilab). Tests were started by the addition of 2 μl of 2.5-fold concentrated ATAD2 solution (25 nM=10 nM final concentration in the 5 μl assay volume) in aqueous assay buffer [50 mM HEPES pH 7.5, 50 mM potassium fluoride (KF), 100 mM sodium chloride (NaCl), 0.25 mM CHAPS, 0.05% bovine serum albumine (BSA) and 1 mM dithiothreitol (DTT)] to the compounds in the test plate with a Multidrop dispenser (Thermo-Fisher). Test plates were then incubated 10′ at 22° C., in order to allow pre-equilibration of putative compound-ATAD2 complexes. Subsequently, 3 μl of a 1.67-fold concentrated solution containing Ac-H4 peptide (83.5 nM=50 nM final concentration) and TR-FRET detection reagents [16.7 nM Anti-GST-XL665 (Cisbio), =10 nM final concentration and 4.17 nM Lance EU W-1024 Streptavidin Europium Chelate (Perkin-Elmer)=2.5 nM final concentration were dispensed into the plates.
# The mixture was further incubated in the dark for 1 hour at 22° C. Finally the inhibition of the formation of ATAD2/Ac-H4 complexes was assessed by measurement of the resonance energy transfer from the Streptavidin-Eu-Chelate to the anti-GST-XL665 antibody present in the reaction. To this end, the fluorescence emissions at 622 nm and 665 nm after excitation at 337 nm were measured in a TR-FRET reader, e.g. a Rubystar or Pherastar (both from BMG Lab Technologies) or a Viewlux (Perkin-Elmer) and the ratio of the emissions at 665 nm and at 622 nm was taken as indicator for the amount of ATAD2/Ac-H4 complexes in equilibrium.
# The data were normalized using two sets of control wells (16 each). The first accounted for 100% ATAD2/Ac-H4 binding (0% inhibition), and contained all reaction components but DMSO instead of inhibitors. The second represented 0% ATAD2/Ac-H4 binding (100% inhibition), and included all assay components except ATAD2. IC50 values were calculated by fitting the normalized inhibition data to a 4-parameter logistic equation using either Screener software (Genedata) or a Bayer-proprietary analysis software.
row,IC50 [µM],SMILES
1,0.58,"Cc1ccc([C@@H](C)NCc2ccc(-c3ccc(Cl)c(C(=O)N[C@H](Cc4ccc(C#N)cc4)CN4CCN(C)CC4)c3)o2)cc1 [Example 21, 2-chloro-N-[(2R)-1-(4-cyanophenyl)-3-(4-methylpiperazin-1-yl)propan-2-yl]-5-[5-({[(1R)-1-(4-methylphenyl)ethyl]amino}methyl)-2-furyl]benzamide]"
2,0.854,"Cc1ccc([C@@H](C)NCc2ccc(-c3ccc(Cl)c(C(=O)N[C@H](Cc4ccc(C#N)cc4)CN4CCOCC4)c3)o2)cc1 [Example 22, 2-chloro-N-[(2R)-1-(4-cyanophenyl)-3-(morpholin-4-yl)propan-2-yl]-5-[5-({[(1R)-1-(4-methylphenyl)ethyl]amino}methyl)-2-furyl]benzamide]"
3,0.561,"Cc1ccc([C@@H](C)NCc2ccc(-c3ccc(Cl)c(C(=O)N[C@@H](CNCCO)Cc4ccc(C#N)cc4)c3)o2)cc1 [Example 23, 2-chloro-N-{(2R)-1-(4-cyanophenyl)-3-[(2-hydroxyethyl)amino]propan-2-yl}-5-[5-({[(1R)-1-(4-methylphenyl)ethyl]amino}methyl)-2-furyl]benzamide]"
4,0.598,"Cc1ccc([C@@H](C)NCc2ccc(-c3ccc(Cl)c(C(=O)N[C@H](Cc4ccc(C#N)cc4)CN(C)C)c3)o2)cc1 [Example 24, 2-chloro-N-[(2R)-1-(4-cyanophenyl)-3-(dimethylamino)propan-2-yl]-5-[5-({[(1R)-1-(4-methylphenyl)ethyl]amino}methyl)-2-furyl]benzamide]"
5,0.331,"Cc1ccc([C@@H](C)NCc2ccc(-c3ccc(Cl)c(C(=O)N[C@@H](CCNC(C)C)Cc4ccc(C#N)cc4)c3)o2)cc1 [Example 26, 2-chloro-N-[(2R)-1-(4-cyanophenyl)-4-(isopropylamino)butan-2-yl]-5-[5-({[(1R)-1-(4-methylphenyl)ethyl]amino}methyl)-2-furyl]benzamide]"
6,0.297,"Cc1ccc([C@@H](C)NCc2ccc(-c3ccc(Cl)c(C(=O)N[C@@H](CCN4CCN(C)C[C@@H]4C)Cc4ccc(C#N)cc4)c3)o2)cc1 [Example 31, 2-chloro-N-{(2R)-1-(4-cyanophenyl)-4-[(2S)-2,4-dimethylpiperazin-1-yl]butan-2-yl}-5-[5-({[(1R)-1-(4-methylphenyl)ethyl]amino}methyl)-2-furyl]benzamide]"
7,0.13,"Cc1ccc([C@@H](C)NCc2ccc(-c3ccc(Cl)c(C(=O)N[C@@H](CCN4CCN(C)C[C@H]4C)Cc4ccc(C#N)cc4)c3)o2)cc1 [Example 32, 2-chloro-N-{(2R)-1-(4-cyanophenyl)-4-[(2R)-2,4-dimethylpiperazin-1-yl]butan-2-yl}-5-[5-({[(1R)-1-(4-methylphenyl)ethyl]amino}methyl)-2-furyl]benzamide]"
8,0.423,"Cc1ccc([C@@H](C)NCc2ccc(-c3ccc(Cl)c(C(=O)N[C@@H](CCN[C@@H]4CCN(C)C4)Cc4ccc(C#N)cc4)c3)o2)cc1 [Example 34, 2-chloro-N-[(2R)-1-(4-cyanophenyl)-4-{[(3R)-1-methylpyrrolidin-3-yl]amino}butan-2-yl]-5-[5-({[(1R)-1-(4-methylphenyl)ethyl]amino}methyl)-2-furyl]benzamide]"
9,0.466,"Cc1ccc([C@@H](C)NCc2ccc(-c3ccc(Cl)c(C(=O)N[C@@H](CCN[C@H]4CCN(C)C4)Cc4ccc(C#N)cc4)c3)o2)cc1 [Example 35, 2-chloro-N-[(2R)-1-(4-cyanophenyl)-4-{[(3S)-1-methylpyrrolidin-3-yl]amino}butan-2-yl]-5-[5-({[(1R)-1-(4-methylphenyl)ethyl]amino}methyl)-2-furyl]benzamide]"

# The next lines start with the compound.
row,SMILES,IC50 [µM]
1,"Cc1ccc([C@@H](C)NCc2ccc(-c3ccc(Cl)c(C(=O)N[C@H](Cc4ccc(C#N)cc4)c4ncn[nH]4)c3)o2)cc1 [Example 20, 2-chloro-N-[(1R)-2-(4-cyanophenyl)-1-(1H-1,2,4-triazol-5-yl)ethyl]-5-[5-({[(1R)-1-(4-methylphenyl)ethyl]amino}methyl)-2-furyl]benzamide]",0.729
2,"Cc1ccc([C@@H](C)NCc2ccc(-c3ccc(Cl)c(C(=O)N[C@@H](CCN4CCN(C)CC4)Cc4ccc(C#N)cc4)c3)o2)cc1 [Example 25, 2-chloro-N-[(2R)-1-(4-cyanophenyl)-4-(4-methylpiperazin-1-yl)butan-2-yl]-5-[5-({[(1R)-1-(4-methylphenyl)ethyl]amino}methyl)-2-furyl]benzamide]",0.352
3,"Cc1ccc([C@@H](C)NCc2ccc(-c3ccc(Cl)c(C(=O)N[C@@H](CCN4CCN[C@H](C)C4)Cc4ccc(C#N)cc4)c3)o2)cc1 [Example 27, 2-chloro-N-{(2R)-1-(4-cyanophenyl)-4-[(3R)-3-methylpiperazin-1-yl]butan-2-yl}-5-[5-({[(1R)-1-(4-methylphenyl)ethyl]amino}methyl)-2-furyl]benzamide]",0.116
4,"Cc1ccc([C@@H](C)NCc2ccc(-c3ccc(Cl)c(C(=O)N[C@@H](CCN4CCN[C@@H](C)C4)Cc4ccc(C#N)cc4)c3)o2)cc1 [Example 28, 2-chloro-N-{(2R)-1-(4-cyanophenyl)-4-[(3S)-3-methylpiperazin-1-yl]butan-2-yl}-5-[5-({[(1R)-1-(4-methylphenyl)ethyl]amino}methyl)-2-furyl]benzamide]",0.148
5,"Cc1ccc([C@@H](C)NCc2ccc(-c3ccc(Cl)c(C(=O)N[C@@H](CCN4CCOCC4)Cc4ccc(C#N)cc4)c3)o2)cc1 [Example 29, 2-chloro-N-[(2R)-1-(4-cyanophenyl)-4-(morpholin-4-yl)butan-2-yl]-5-[5-({[(1R)-1-(4-methylphenyl)ethyl]amino}methyl)-2-furyl]benzamide]",0.675
6,"Cc1ccc([C@@H](C)NCc2ccc(-c3ccc(Cl)c(C(=O)N[C@H](Cc4ccc(C#N)cc4)C(=O)NC4CCN(C)CC4)c3)o2)cc1 [Example 30, Nα-{2-chloro-5-[5-({[(1R)-1-(4-methylphenyl)ethyl]amino}methyl)-2-furyl]benzoyl}-4-cyano-N-(1-methylpiperidin-4-yl)-D-phenylalaninamide]",0.253
7,"Cc1ccc([C@@H](C)NCc2ccc(-c3ccc(Cl)c(C(=O)N[C@@H](CO)Cc4ccc(C#N)c(C)c4)c3)o2)cc1 [Example 37, 2-chloro-N-[(2R)-1-(4-cyano-3-methylphenyl)-3-hydroxypropan-2-yl]-5-[5-({[(1R)-1-(4-methylphenyl)ethyl]amino}methyl)-2-furyl]benzamide]",0.443
8,"Cc1ccc([C@@H](C)NCc2ccc(-c3ccc(Cl)c(C(=O)N[C@@H](CO)Cc4cc(F)c(C#N)cc4C)c3)o2)cc1 [Example 38, 2-chloro-N-[(2R)-1-(4-cyano-5-fluoro-2-methylphenyl)-3-hydroxypropan-2-yl]-5-[5-({[(1R)-1-(4-methylphenyl)ethyl]amino}methyl)-2-furyl]benzamide]",0.365
9,"COc1cc(C#N)ccc1C[C@H](CO)NC(=O)c1cc(-c2ccc(CN[C@H](C)c3ccc(C)cc3)o2)ccc1Cl [Example 39, 2-chloro-N-[(2R)-1-(4-cyano-2-methoxyphenyl)-3-hydroxypropan-2-yl]-5-[5-({[(1R)-1-(4-methylphenyl)ethyl]amino}methyl)-2-furyl]benzamide]",0.585
10,"Cc1ccc([C@@H](C)NCc2ccc(-c3ccc(Cl)c(C(=O)N[C@@H](CO)Cc4ccc(C#N)c(N)c4)c3)o2)cc1 [Example 40, N-[(2R)-1-(3-amino-4-cyanophenyl)-3-hydroxypropan-2-yl]-2-chloro-5-[5-({[(1R)-1-(4-methylphenyl)ethyl]amino}methyl)-2-furyl]benzamide]",0.781
